Results on six compounds are retold here after ChEMBL document CHEMBL4706713, “Speeding drug discovery targeting RNAs: An iterative "RNA selection-compounds screening cycle" for exploring RNA-small molecule pairs” (Bioorg Med Chem, 2021).

Molecules are shown by their SMILES. Activity calls are given as the source filed them. The rule behind the calls is not given here.

Test [1] can be described thus: Binding affinity to 5'-Biotinylated pre-let-7f-2-loop-mt RNA (unknown origin) at 25 uM by SPR analysis.
Test [2] is described as follows: Binding affinity to 5'-Biotinylated pre-let-7f-2-loop-mt RNA (unknown origin) by SPR analysis.
The nature of test [3]: Binding affinity to R1-RNA internal loop mutant4 (unknown origin) by SPR analysis. (SPR reads the build-up and loss of mass on a sensor chip optically.)
Test [4] in a line: Binding affinity to R1-RNA hairpin loop (unknown origin) by SPR analysis.
Test [5] is described as follows: Binding affinity to R1-RNA (unknown origin) by SPR analysis.
The nature of test [6]: Binding affinity to R2-RNA (unknown origin) by SPR analysis.
Test [7] is described as follows: Binding affinity to R1-RNA internal loop mutant1 (unknown origin) by SPR analysis.
Test [8] in a line: Binding affinity to 5'-Biotinylated pre-let-7f-2 RNA (unknown origin) by SPR analysis.
Test [9] is described as follows: Binding affinity to R1-RNA internal loop (unknown origin) by SPR analysis.
A short description of test [10]: Binding affinity to R1-RNA internal loop mutant3 (unknown origin) by SPR analysis.
Test [11] in a line: Binding affinity to R1-RNA internal loop mutant2 (unknown origin) by SPR analysis.

By Kd is commonly meant the constant that tells how readily two partners part at equilibrium. Low values mean tighter binding, high ones weaker binding. For `CC(C)NC(=O)c1ccncc1NC(=O)Nc1nn(C)c2nc(Cl)ncc12`, the result in test [1] was Active. Also, the Kd in [2] is 17.8 µM.

For the compound `CC(C)NC(=O)c1ccncc1NC(=O)Nc1nn(C)c2nc(N3CCCC3)ncc12`, in test [2], the outcome was inactive.

Consider `CC(C)NC(=O)c1ccncc1NC(=O)Nc1nn(C)c2nc(N3CCC(CN(C)C)C3)ncc12` (configuration not stated), for which the result in test [1] was Active.

On to `COCC1CCN(c2ncc3c(NC(=O)Nc4cnccc4C(=O)NC(C)C)nn(C)c3n2)C1` (configuration not stated), for which the outcome in test [2] was inactive.

As for `CC(C)NC(=O)c1ccncc1NC(=O)Nc1nn(C)c2nc(N3CCC(N(C)C)C3)ncc12` (configuration not stated), in [1], the outcome was Active.

For the compound `Cn1nc(NC(=O)Nc2cnccc2C(=O)N[C@@H](CO)CCCCN)c2cnc(N3CC(F)(F)C(F)(F)C3)nc21`, the result in test [3], in [4], in test [6], in test [7], in [8] and in test [10] was inactive. The outcome in [11] was inactive. For the same compound, the result in test [5], in [1], in test [9] and in test [2] was Active.
